# Data as given in patent publication US20150352100A1, “USE OF SELECTIVE DELTA-OPIOID RECEPTOR ANTAGONISTS AND SPECIFIC SENSORY RECEPTOR LIGANDS” (priority 2013, published 2015).
# Entries after “also recorded” stand apart in the source; their conditions may differ.
# Columns and labels:
# [1] = test system: primary human cultured fibroblasts; experiment: In-vitro wound scratch model, wound closure/migration; type: cell-based; conditions: for scratch wound closure after 24 h, remaining gap: FIG. 16b, all opioid antagonists 100 nM, compared to control without any antagonist; for wound closure/migration, gap closure after 24 h: FIG. 16a, compared to control cells in DMSO diluent
# Description: All opioid antagonists were used in a concentration of 100 nM.
# The stimulation of wound closure in fibroblasts by TGF-beta1 is not surprising. However, the stimulation by the DOR-Antagonist Naltrindole was not expected. In an additional experiment we tested the effect of various specific opioid receptor antagonists on the wound closure/migration of human primary fibroblasts using the in-vitro wound scratch assay.
# [2] = test system: TAS2R14; experiment: Calcium imaging (Fluo4-AM) of keratinocytes with TAS2R14 ligands; type: cell-based, human; conditions: for effect of blocker on calcium response to thujone: keratinocytes; for calcium response: in the presence of 100 μM suramin, 1 mM thujone, FFA in N/TERT cells, n=4; for effect of blocker on calcium responses to thujone and FFA: human skin cells, suramin 100 μM
# Description: (§1) Maximal increases in fluorescence were generated in each recording by addition of the ionophore ionomycin at 1 μM, and calcium responses were calculated as percentages compared to maximal ionomycin signal.
# [3] = biological target: T1, TAS2R14 (Homo sapiens, UniProt Q9NYV8); experiment: as above; type: cell-based; conditions: for intracellular free calcium (fluorescence of fluo4): bath-application of 1 mM, primary keratinocytes and N/TERT cells
# T1 construct: This has allowed functional studies of TAS2R14 to be carried out in a native setting; endogenous in cells; host or cells: human primary keratinocytes and N/TERT immortalised human keratinocytes
# T1 sequence (Q9NYV8 1-317): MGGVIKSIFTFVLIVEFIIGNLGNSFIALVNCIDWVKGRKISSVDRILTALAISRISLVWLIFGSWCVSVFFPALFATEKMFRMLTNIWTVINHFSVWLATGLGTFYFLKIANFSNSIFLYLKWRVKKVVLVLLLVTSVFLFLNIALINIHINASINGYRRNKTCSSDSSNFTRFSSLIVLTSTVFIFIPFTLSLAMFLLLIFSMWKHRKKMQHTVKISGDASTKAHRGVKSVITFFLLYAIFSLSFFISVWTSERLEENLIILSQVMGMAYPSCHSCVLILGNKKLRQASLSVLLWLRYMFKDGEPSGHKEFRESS
# Description: as §1
# [4] = test system: 6 mm punch wounds on the back of mice; experiment: In vivo wound healing, 6 mm punch wounds, topical cream; conditions: 1% w/w cream on wounds twice every day; for wound healing (mean healing rate, macroscopic and microscopic): 10 mice per group, vs placebo
# Description: The effects of selective DOR antagonist are tested in animal models of wound healing, preferably in mice, to determine whether a selective DOR antagonist improves the quality, rate or extent of wound healing.
# In the present example, male mice of 3-4 months old were grouped into 5 groups and 10 in each group. Before experiment, mice are shaved one day before. Pentothal was used for anesthesia before experiments. Seven days experiments are used. Four wounds are made by cutting 6 mm diameter and 3 cm apart. Day 1 wound #1 for 7 day wound, Day 3 wound #2 for 5 day wound, Day 5 wound #3 for 3 day wound, Day 7 wound #4 for 1 day wound, Day 8 mice are sacrifice. […] At the end of experiments on Day 8, the biopsies will be taken from the mice and fixed in 4% formaldehyde and embedded in paraffin block.
# [5] = test system: DOR protein expression; experiment: Western blot analysis of DOR protein expression in cultured human skin cells; type: cell-based
# Excerpt: B: Protein Expression of DOR by Western Blot Analysis: […]
# [6] = test system: DOR-mRNA expression; experiment: Semiquantification of DOR mRNA by real time PCR in cultured human primary skin cells; type: cell-based
# Excerpt: A: Semiquantification of DOR mRNA by Real Time PCR
# It is important to mention, that human cultured melanocytes and keratinocytes express more MOR than DOR mRNA. However, fibroblasts express more DOR than MOR mRNA.
# [7] = test system: Erk phosphorylation (ERK1/2); experiment: pERK activation protocol (western blot, anti-phospho ERK1/2) in primary keratinocytes; type: cell-based, human
# Description: Primary keratinocytes were grown to 70% and replaced with supplement free medium 16-24 hours before the experiments. The strongly stimulating supplement (25 mg/l bovine pituitary extract and 2.5 ug/l epidermal growth factor, EGF) in complete KFSM (Gibco) medium was used as positive control. Cells were exposed to SNC 80 for 15 min, DMSO (blank control) 15 min, or FCS/complete K-SFM for 30 min at 37° C. […] Cells were lysed in 100 μl RIPA buffer and cell lysates frozen in liquid nitrogen.
# Equal amount of protein were separated by electrophoresis over 10% polyacrylamid gels followed by protein transfer onto nitrocellulose membrane. Blots were transferred to primary antibody solution (anti-phospho ERK1/2 in 5% BSA/TBS-T) and incubated at 4° C. over night. After appropriate washing in TBS-T blots were incubated in secondary antibody (anti-rabbit Alexa-680 in 5% milk/TBS-T) for 45 min at room temperature in dark. Blots were washed 3× in TBS-T protected from light. Blots were imaged with the IR imager in 700 nm channel in a scan at 169 μm resolution.
# [8] = human cultured fibroblasts, 24 h exposure
# [9] = human cultured melanocytes, 6 h exposure
# [10] = primary human cultured keratinocytes
# [11] = cultured human primary keratinocytes
compound,measurement,setting,value
COc1cccc2c1[C@]13CCN(CC4CC4)[C@H](C2)[C@]1(OC)CCC(=O)C3 [Cyprodime],"scratch wound closure after 24 h, remaining gap",[1],no significant effects
O=C1CN(/N=C/c2ccc(-c3ccc([N+](=O)[O-])cc3)o2)C(O)=N1 [Dantrolene],effect of blocker on calcium response to thujone,[2],significantly attenuate
"O=C(O)c1ccccc1Nc1cccc(C(F)(F)F)c1 [FFA, flufenamic acid]",intracellular free calcium (fluorescence of fluo4),[3],robust increases in intracellular free calcium
same,calcium response,[2],31.0±7.0 percentage of ionomycin signal
O=C1CC[C@@]2(O)[C@H]3Cc4ccc(O)c5c4[C@@]2(CCN3CC2CC2)[C@H]1O5 [Naltrexone],"wound healing (mean healing rate, macroscopic and microscopic)",[4],not effective
Oc1ccc2c3c1O[C@H]1c4oc5ccccc5c4C[C@@]4(O)[C@@H](C2)N(CC2CC2)CC[C@]314 [Naltriben],"scratch wound closure after 24 h, remaining gap",[1],more effective than the mixed DOR1/2 antagonist Naltrindole and much more effective than the DOR1 antagonist BNTX
"Oc1ccc2c3c1O[C@H]1c4[nH]c5ccccc5c4C[C@@]4(O)[C@@H](C2)N(CC2CC2)CC[C@]314 [Naltrindole, naltrindole]",DOR protein expression,[5]; [8],important upregulation
same,DOR protein expression,[5]; [9],important up-regulation; also recorded: upregulates
same,DOR protein expression,"[5]; human cultured melanocytes, combination of antagonist Naltrindole and agonist SNC-80",can upregulate the protein as well; also recorded: can up-regulate the protein as well
same,DOR protein expression,[5]; [10],important up-regulation; also recorded: up-regulates
same,DOR-mRNA expression,[6]; cultured human primary fibroblasts,increases significantly
same,DOR-mRNA expression,[6]; [11],increases significantly
same,DOR-mRNA expression,[6]; cultured human primary melanocytes,increases significantly
same,DOR-mRNA expression,"[6]; cultured human primary melanocytes, co-incubation of Naltrindole and agonist SNC-80",increases significantly
same,mRNA of DOR,"[6]; human keratinocytes and melanocytes pre-incubated for 3 hours with 10 μM Naltrindole, then exposed to SNC-80",massively up-regulated
same,"wound closure/migration, gap closure after 24 h",[1],significant faster migration and wound closure; also recorded: significant improvement of wound closure/migration
same,concentration that promotes phosphorylation of MAP kinase such as Erk,[7]; MAP kinase activation assay for selecting DOR antagonists,less than or equal to 10 μM
same,Erk phosphorylation (MAPK pathway ERK1/2),[7]; primary human keratinocytes,strong stimulating effect; also recorded: massive activation of Erk
same,"wound healing (mean healing rate, macroscopic and microscopic)",[4],significantly improved wound healing at days 5 and 7
same,"wound healing (mean healing rate, macroscopic and microscopic)",[4]; listed as Naltrindol,significant better healing
same,improvement of wound healing,[4]; compared to placebo,3 days
C=CCN1C[C@H](C)N([C@H](c2ccc(C(=O)N(CC)CC)cc2)c2cccc(OC)c2)C[C@H]1C [SNC-80],DOR protein expression,[5]; [8],some up- and downregulation
same,DOR protein expression,[5]; [9],not
same,DOR protein expression,[5]; [10],important up-regulation; also recorded: up-regulates
same,DOR-mRNA expression,[6]; [11],increases significantly
same,"wound closure/migration, gap closure after 24 h",[1],does not seem to have any stimulation of migration; also recorded: does not seem to change migration
same,effect on Naltrindole-stimulated Erk phosphorylation,[7]; primary human keratinocytes,antagonized
same,"wound healing (mean healing rate, macroscopic and microscopic)",[4],very significant advantage of a specific DOR antagonist over
"C1CCC[C@H]2CCCN3CC[C@@H](CCCCCC[C@@H]4CCCN5CC[C@@H](CC1)O[C@@H]45)O[C@@H]23 [Xestospongin, Xestospongin C]",effect of blocker on calcium response to thujone,[2],significantly attenuated; also recorded: highly significant inhibition
"COC(=O)/C=C/C(=O)N[C@@H]1CC[C@@]2(O)[C@H]3Cc4ccc(O)c5c4[C@@]2(CCN3CC2CC2)[C@H]1O5 [irreversible blocker of MOR (>KOR>>DOR), beta-Funaltrexamine]","scratch wound closure after 24 h, remaining gap",[1],no significant effects
Cc1ccc(C(=O)Nc2ccc(S(=O)(=O)O)c3cc(S(=O)(=O)O)cc(S(=O)(=O)O)c23)cc1NC(=O)c1cccc(NC(=O)Nc2cccc(C(=O)Nc3cc(C(=O)Nc4ccc(S(=O)(=O)O)c5cc(S(=O)(=O)O)cc(S(=O)(=O)O)c45)ccc3C)c2)c1 [suramin],effect of blocker on calcium responses to thujone and FFA,[2],significantly attenuated
same,effect of blocker on calcium responses to thujone and FFA,[2]; listed as Suramin,attenuates significantly
"CC(C)[C@]12CC(=O)[C@H](C)[C@H]1C2 [thujone, α-thujone]",intracellular free calcium (fluorescence of fluo4),[3],robust increases in intracellular free calcium
same,calcium response,"[3]; control without suramin, 1 mM thujone, FFA in N/TERT cells, n=4",84.2±5.5 percentage of ionomycin signal
same,calcium response,[2],34.4±8.2 percentage of ionomycin signal
Dalargin,"wound healing (mean healing rate, macroscopic and microscopic)",[4],very significant advantage of a specific DOR antagonist over
Ryanodine,effect of blocker on calcium response to thujone,[2],significantly attenuate
TGFβ1: known stimulator of wound closure/migration,"wound closure/migration, gap closure after 24 h",[1],significant improvement of wound closure/migration
same,"wound closure/migration, gap closure after 24 h",[1]; listed as TGF-beta1,significant faster migration and wound closure
